Measured values as given in US7396837B2, “Antitumoral analogs of lamellarins” (Pharma Mar, S.A.U., priority 2002, dated 2008).
Like-named read-outs stand apart in the source and are kept apart here.

What was measured:
K-562 = experiment: SRB colorimetric cell growth inhibition assay, K-562; type: cell-based; details: Homo sapiens, K562, K-562; for GI50: GI=growth inhibition, read-out: GI50 K-562; for CC50: read-out: LC50 K-562; for IC (TGI): read-out: TGI K-562
In short: (§1)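 Quantitation uses the sulforhodamine B reaction on cells exposed to sample for the whole assay period; results (mean ± SD, n = 3 wells) yield GI, TGI and LC.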

A-549 = experiment: SRB colorimetric cell growth inhibition assay, A-549; type: cell-based; details: Homo sapiens, A549, A-549; for GI50: GI=growth inhibition, read-out: GI50 A-549; for CC50: read-out: LC50 A-549; for IC (TGI): read-out: TGI A-549
In short: as §1

SK-MEL-28 = experiment: SRB colorimetric cell growth inhibition assay, SK-MEL-28; type: cell-based; details: Homo sapiens, SK-MEL-28, MEL-28; for GI50: GI=growth inhibition, read-out: GI50 MEL-28; for CC50: read-out: LC50 MEL-28; for IC (TGI): read-out: TGI MEL-28
In short: as §1

HT-29 = experiment: SRB colorimetric cell growth inhibition assay, HT-29; type: cell-based; details: Homo sapiens, HT-29, HT-29; for GI50: GI=growth inhibition, read-out: GI50 HT-29; for CC50: read-out: LC50 HT-29; for IC (TGI): read-out: TGI HT-29
In short: as §1

LoVo = experiment: SRB colorimetric cell growth inhibition assay, LoVo; type: cell-based; details: Homo sapiens, LoVo; for GI50: GI=growth inhibition, read-out: GI50 LOVO; for CC50: read-out: LC50 LOVO; for IC (TGI): read-out: TGI LOVO
In short: as §1

LoVo-Dox = experiment: SRB colorimetric cell growth inhibition assay, LoVo-Dox (MDR); type: cell-based; details: Homo sapiens, LOVO-DOX; for GI50: GI=growth inhibition, read-out: GI50 LOVO-DOX; for CC50: read-out: LC50 LOVO-DOX; for IC (TGI): read-out: TGI LOVO-DOX
In short: as §1

DU-145 = experiment: SRB colorimetric cell growth inhibition assay, DU-145; type: cell-based; details: Homo sapiens, DU-145, DU-145; for GI50: GI=growth inhibition, read-out: GI50 DU-145; for CC50: read-out: LC50 DU-145; for IC (TGI): read-out: TGI DU-145
In short: as §1

LNCaP = experiment: SRB colorimetric cell growth inhibition assay, LNCaP; type: cell-based; details: Homo sapiens, LNCaP, LN-caP; for GI50: GI=growth inhibition, read-out: GI50 LN-caP; for CC50: read-out: LC50 LN-caP; for IC (TGI): read-out: TGI LN-caP
In short: as §1

SK-BR-3 = experiment: SRB colorimetric cell growth inhibition assay, SK-BR-3; type: cell-based; details: Homo sapiens, SK-BR-3, SK-BR-3; for GI50: GI=growth inhibition, read-out: GI50 SK-BR-3; for CC50: read-out: LC50 SK-BR-3; for IC (TGI): read-out: TGI SK-BR-3
In short: as §1

IGROV = experiment: SRB colorimetric cell growth inhibition assay, IGROV; type: cell-based; details: Homo sapiens, IGROV; for GI50: GI=growth inhibition, read-out: GI50 IGROV; for CC50: read-out: LC50 IGROV; for IC (TGI): read-out: TGI IGROV
In short: as §1

IGROV-ET = experiment: SRB colorimetric cell growth inhibition assay, IGROV-ET (ET-743 resistant); type: cell-based; details: Homo sapiens, IGROV-ET; for GI50: GI=growth inhibition, read-out: GI50 IGROV-ET; for CC50: read-out: LC50 IGROV-ET; for IC (TGI): read-out: TGI IGROV-ET
In short: as §1

PANC-1 = experiment: SRB colorimetric cell growth inhibition assay, PANC-1; type: cell-based; details: Homo sapiens, PANC-1, PANC-1; for GI50: GI=growth inhibition, read-out: GI50 PANC-1; for CC50: read-out: LC50 PANC-1; for IC (TGI): read-out: TGI PANC-1
In short: as §1

human topoisomerase I = target: T1, human topoisomerase I (Homo sapiens, UniProt P11387); experiment: Topoisomerase I DNA relaxation assay (supercoiled plasmid DNA); type: biochemical; details: supercoiled plasmid DNA, each compound tested at 1 μM, agarose gel with ethidium bromide
T1 sequence (P11387 1-765): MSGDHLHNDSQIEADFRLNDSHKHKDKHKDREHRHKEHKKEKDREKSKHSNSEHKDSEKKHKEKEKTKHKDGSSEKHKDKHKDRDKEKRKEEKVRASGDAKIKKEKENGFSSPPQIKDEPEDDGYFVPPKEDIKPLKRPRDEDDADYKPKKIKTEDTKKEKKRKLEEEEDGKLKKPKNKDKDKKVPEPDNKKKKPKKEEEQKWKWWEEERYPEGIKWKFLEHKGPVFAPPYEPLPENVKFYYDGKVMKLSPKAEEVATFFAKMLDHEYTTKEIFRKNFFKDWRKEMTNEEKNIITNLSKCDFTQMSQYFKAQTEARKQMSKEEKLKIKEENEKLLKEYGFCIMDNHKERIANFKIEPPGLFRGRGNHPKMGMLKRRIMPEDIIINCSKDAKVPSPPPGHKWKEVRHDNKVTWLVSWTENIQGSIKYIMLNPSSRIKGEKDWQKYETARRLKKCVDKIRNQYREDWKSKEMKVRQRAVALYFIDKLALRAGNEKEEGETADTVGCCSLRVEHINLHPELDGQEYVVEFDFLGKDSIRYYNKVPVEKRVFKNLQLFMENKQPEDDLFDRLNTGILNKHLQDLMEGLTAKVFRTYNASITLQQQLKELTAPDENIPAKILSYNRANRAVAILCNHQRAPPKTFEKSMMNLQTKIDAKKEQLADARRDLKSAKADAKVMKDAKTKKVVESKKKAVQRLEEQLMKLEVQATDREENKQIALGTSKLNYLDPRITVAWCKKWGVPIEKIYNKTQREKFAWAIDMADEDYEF
In short: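 Test compounds (1 μM each) were present during topoisomerase I relaxation of supercoiled plasmid DNA. Relaxation was assessed on ethidium bromide-stained agarose gels.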

[1] = cell killing (cytotoxic effect)
[2] = total growth inhibition (cytostatic effect)
[3] = LC=cell killing (cytotoxic effect)
[4] = TGI=total growth inhibition (cytostatic effect)

COc1cc(-c2c3c4cc(OC)c(OC(=O)[C@H](N)C(C)C)cc4oc(=O)c3n3ccc4cc(OC(=O)[C@H](N)C(C)C)c(OC)cc4c23)ccc1OC(=O)[C@H](N)C(C)C [Compound 17]
GI50 (K-562): 0.0536 µM
CC50 (K-562; [1]): 2.5 µM
IC (TGI) (K-562; [2]): 0.277 µM
GI50 (A-549): 0.207 µM
CC50 (A-549; [1]): 8.48 µM
IC (TGI) (A-549; [2]): 0.663 µM
GI50 (SK-MEL-28): 0.0518 µM
CC50 (SK-MEL-28; [1]): 0.766 µM
IC (TGI) (SK-MEL-28; [2]): 0.171 µM
GI50 (HT-29): 0.342 µM
CC50 (HT-29; [1]): 8.78 µM
IC (TGI) (HT-29; [2]): 0.686 µM
GI50 (LoVo): 0.216 µM
CC50 (LoVo; [1]): 0.816 µM
IC (TGI) (LoVo; [2]): 0.42 µM
GI50 (LoVo-Dox): 0.384 µM
CC50 (LoVo-Dox; [1]): 5.29 µM
IC (TGI) (LoVo-Dox; [2]): 1.33 µM
GI50 (DU-145): 0.0487 µM
CC50 (DU-145; [1]): 2.3 µM
IC (TGI) (DU-145; [2]): 0.228 µM
GI50 (LNCaP): 0.132 µM
CC50 (LNCaP; [1]): 0.599 µM
IC (TGI) (LNCaP; [2]): 0.281 µM
GI50 (SK-BR-3): 0.0803 µM
CC50 (SK-BR-3; [1]): 1.22 µM
IC (TGI) (SK-BR-3; [2]): 0.286 µM
GI50 (IGROV): 0.105 µM
CC50 (IGROV; [1]): 4.93 µM
IC (TGI) (IGROV; [2]): 0.405 µM
GI50 (IGROV-ET): 0.162 µM
CC50 (IGROV-ET; [1]): 8.78 µM
IC (TGI) (IGROV-ET; [2]): 0.544 µM
GI50 (PANC-1): 0.206 µM
CC50 (PANC-1; [1]): 8.53 µM
IC (TGI) (PANC-1; [2]): 1.52 µM
stimulation of DNA cleavage by topoisomerase I / inhibition of topoisomerase I (nicked DNA band) in DNA relaxation assay (human topoisomerase I): stimulated DNA cleavage by the enzyme

COc1cc(-c2c3c4cc(OC)c(OC(=O)[C@H](C)N)cc4oc(=O)c3n3ccc4cc(OC(=O)[C@H](C)N)c(OC)cc4c23)ccc1OC(=O)[C@H](C)N [Compound 40]
GI50 (K-562): 0.0582 µM
CC50 (K-562; [3]): 4.61 µM
IC (TGI) (K-562; [4]): 0.986 µM
GI50 (A-549): 0.0316 µM
CC50 (A-549; [3]): 9.48 µM
IC (TGI) (A-549; [4]): 0.27 µM
GI50 (SK-MEL-28): 0.0412 µM
CC50 (SK-MEL-28; [3]): 9.48 µM
IC (TGI) (SK-MEL-28; [4]): 0.595 µM
GI50 (HT-29): 3.57 µM
CC50 (HT-29; [3]): 9.48 µM
IC (TGI) (HT-29; [4]): 9.48 µM
GI50 (LoVo): 0.223 µM
CC50 (LoVo; [3]): 6.41 µM
IC (TGI) (LoVo; [4]): 0.884 µM
GI50 (LoVo-Dox): 0.47 µM
CC50 (LoVo-Dox; [3]): 9.48 µM
IC (TGI) (LoVo-Dox; [4]): 3.35 µM
GI50 (DU-145): 0.0162 µM
CC50 (DU-145; [3]): 9.48 µM
IC (TGI) (DU-145; [4]): 0.094 µM
GI50 (LNCaP): 0.13 µM
CC50 (LNCaP; [3]): 4.38 µM
IC (TGI) (LNCaP; [4]): 0.447 µM
GI50 (SK-BR-3): 0.816 µM
CC50 (SK-BR-3; [3]): 9.48 µM
IC (TGI) (SK-BR-3; [4]): 3.25 µM
GI50 (IGROV): 0.0449 µM
CC50 (IGROV; [3]): 5.04 µM
IC (TGI) (IGROV; [4]): 0.391 µM
GI50 (IGROV-ET): 0.0852 µM
CC50 (IGROV-ET; [3]): 9.48 µM
IC (TGI) (IGROV-ET; [4]): 0.557 µM
GI50 (PANC-1): 0.254 µM
CC50 (PANC-1; [3]): 9.48 µM
IC (TGI) (PANC-1; [4]): 3.27 µM
stimulation of DNA cleavage by topoisomerase I / inhibition of topoisomerase I (nicked DNA band) in DNA relaxation assay (human topoisomerase I): marked inhibition of topoisomerase I
